Reference: publication PMC10227015, “From a drug repositioning to a structure-based drug design approach to tackle acute lymphoblastic leukemia” (Nature Communications, 2023)
Read-outs that look alike come from different tables or passages of the source.

Tests used:
CCRF-CEM cell line = assay: dCK cellular assay: CCRF-CEM proliferation in the presence of dT and dC; assay type: cell-based, human
Procedure: The dCK cellular assay was set up to assess the ability to inhibit dCK activity in a cellular model. The model was developed with a T-cell acute lymphoblastic leukemia cell line (CCRF-CEM), because of its high dependence on the SP, thus on dCK activity. Cellular assays were performed to assess the inhibition of cell proliferation under two conditions: (i) in the presence of the compound alone to determine the nonspecific effect on cells, independent of dCK (nonspecific toxicity) and (ii) in the presence of an inhibitor of the DNP to determine the ability of compounds to inhibit dCK and decrease tumor proliferation (activity on dCK). The inhibitor of the DNP chosen for the experiments was thymidine (dT), a physiological inhibitor of ribonucleotide reductase which arrests cell proliferation in phase S. The dTTP produced via thymidine kinase from dT acts as a RNR inhibitor by an allosteric regulation of the R1 subunit. The addition of the nucleoside deoxycytidine (dC) in the medium allows the rescue of cell proliferation by passing only through the salvage pathway, mediated by dCK. dC needs to be added exogenously to mimic physiological concentrations because it is not present in the cell culture medium, on the contrary to mouse model, in which it is naturally present in the serum. Therefore, cell proliferation under these conditions (+dT +dC) is dCK dependent and it is possible to determine the IC50 of dCK inhibitors on the inhibition of cell proliferation. Results are expressed as % cell proliferation relative to the control with DMSO.
The amount of reduced dye formed by metabolically active cells was quantified by its fluorescence measured at 560 nm (excitation) and 590 nm (emission) in a microplate reader (CLARIOstar, BMG Labtech). A blank well without cells was used as a background control. Each experiment was performed at least three times (with technical triplicates) and data are presented as the mean ± SD.

dCK-C3S-S74E = assay: Thermal shift assay (TSA); conditions: for THERMAL SHIFT ASSAY +Tm (°): mean ± SD; for ΔTm (º) (TSA): Figure 2a, mean
[1] = Homo sapiens, read-out: dCK CELLULAR ASSAY IC50 (nM), CCRF-CEM, 200 µM dT and 1 µM dC, read-out: dCK […] ASSAY IC50
[2] = Homo sapiens, Figure 2a, CCRF-CEM cell line, mean, read-out: IC50 (nM) (Cell Prolif)

Chain of dCK-C3S-S74E (P27707 whole entry S74E, form open): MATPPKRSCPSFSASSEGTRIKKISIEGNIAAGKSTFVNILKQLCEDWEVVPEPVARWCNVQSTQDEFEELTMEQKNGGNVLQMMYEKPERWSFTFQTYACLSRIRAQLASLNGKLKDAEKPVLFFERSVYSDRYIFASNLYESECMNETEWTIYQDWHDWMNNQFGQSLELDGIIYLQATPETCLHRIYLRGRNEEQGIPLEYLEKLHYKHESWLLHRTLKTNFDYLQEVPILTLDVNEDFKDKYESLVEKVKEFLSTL

Row | Compound | IC50 (CCRF-CEM cell line; [1]) [nM] | THERMAL SHIFT ASSAY +Tm (°) (dCK-C3S-S74E) | IC50 (CCRF-CEM cell line; [2]) [nM] | ΔTm (º) (TSA) (dCK-C3S-S74E) | IC50 (CCRF-CEM cell line; Figure 2a, CCRF-CEM cell line, mean, read-out: IC50 (nM) (Cell Prolif))
1 | Cc1ccc(NC(=O)c2cnc(CN3CCN(C)CC3)nc2)cc1Nc1nc(-c2nccc(N)n2)cs1 [OR0125] | 37700 ± 4380 | 10.3 ± 0.0 | – | – | –
2 | Cc1ccc(Oc2ccc(CN3CCN(C)CC3)cc2)cc1Nc1nc(-c2nccc(N)n2)cs1 [OR0143] | 2790 ± 1740 | 13.2 ± 0.2 | – | – | –
3 | CN1CCN(CCc2ccc(-c3ccc4c(c3)N(c3nc(-c5nccc(N)n5)cs3)CCCC4)cc2)CC1 [OR0402] | 1760 ± 160 | 19.2 ± 0.3 | – | – | –
4 | Cc1ccc(-c2ccc(CCN3CCN(C)CC3)cc2)cc1N(CC1CC1)c1nc(-c2nc(N)cc(N)n2)cs1 [OR0604] | – | 19.7 ± 1.0 | 609 | 19.7 º | –
5 | Cc1ccc(-c2ccc(CCN3CCN(C)CC3)cc2)cc1N(CCC(C)C)c1nc(-c2nc(N)cc(N)n2)cs1 [OR0605] | – | 18.7 ± 0.6 | 2220 | 18.67 º | –
6 | CCCCN(c1nc(-c2nc(N)cc(N)n2)cs1)c1cc(-c2ccc(CCN3CCN(C)CC3)cc2)ccc1C [OR0606] | – | 19.9 ± 0.5 | 552 | 19.85 º | –
7 | Cc1ccc(-n2cc(CNS(C)(=O)=O)nn2)cc1N(CC(C)C)c1nc(-c2nc(N)cc(N)n2)cs1 [OR0609] | – | 13.5 ± 0.7 | – | 13.5 º | 3180
8 | Cc1ccc(-c2ccc(CCN3CCN(C)CC3)cc2)cc1N(CCN)c1nc(-c2nc(N)cc(N)n2)cs1 [OR0610] | – | 14.7 ± 0.2 | 16400 | 14.7 º | –
9 | CCCN(c1nc(-c2nc(N)cc(N)n2)cs1)c1cc(-c2ccc(CN(C)C)cc2)ccc1C [OR0619] | – | 16.9 ± 0.5 | 614 | 16.88 º | –
10 | CCCN(c1nc(-c2nc(N)cc(N)n2)cs1)c1cc(-c2cccnc2)ccc1C [OR0620] | – | 15.7 ± 0.5 | 407 | 15.71 º | –
11 | CCCN(c1nc(-c2nc(N)cc(N)n2)cs1)c1cc(-c2ccc(C(=O)N3CCOCC3)nc2)ccc1C [OR0621] | – | 16.6 ± 0.9 | 169 | 16.63 º | –
12 | CCCN(c1nc(-c2nc(N)cc(N)n2)cs1)c1cc(-c2ccc(C(=O)OC)nc2)ccc1C [OR0622] | – | 16.5 ± 0.1 | 416 | 16.54 º | –
13 | CCCN(c1nc(-c2nc(N)cc(N)n2)cs1)c1cc(-c2ccc(NS(=O)(=O)N3CCN(C)CC3)nc2)ccc1C [OR0625] | – | 16.8 ± 0.7 | 353 | 16.82 º | –
14 | CCCN(c1nc(-c2nc(N)cc(N)n2)cs1)c1cc(-c2ccc3[nH]ccc3c2)ccc1C [OR0626] | – | 16.9 ± 0.5 | 5750 | 16.85 º | –
15 | CCCN(c1nc(-c2nc(N)cc(N)n2)cs1)c1cc(-c2ccc(OCCN3CCN(C)CC3)nc2)ccc1C [OR0629] | – | 20.6 ± 0.1 | 139 | 20.6 º | –
16 | Cc1ccc(-c2ccc(S(=O)(=O)N3CCN(C)CC3)cc2)cc1N(C)c1nc(-c2nc(N)cc(N)n2)cs1 [OR0631] | – | 16.8 ± 0.1 | 2740 | 16.75 º | –
17 | CCN(c1nc(-c2nc(N)cc(N)n2)cs1)c1cc(-c2ccc(S(=O)(=O)N3CCN(C)CC3)cc2)ccc1C [OR0632] | – | 17.8 ± 0.1 | 413 | 17.75 º | –
18 | CCCN(c1nc(-c2nc(N)cc(N)n2)cs1)c1cc(-c2ccc(S(=O)(=O)N3CCN(C)CC3)cc2)cc(F)c1C [OR0633] | – | 17.3 ± 0.1 | 140 | 17.25 º | –
19 | Cc1ccc(-c2ccc(S(=O)(=O)N3CCN(C)CC3)cc2)cc1N(c1nc(-c2nc(N)cc(N)n2)cs1)C(C)C [OR0636] | – | 17.7 ± 0.9 | 301 | 17.68 º | –
20 | CCCN(c1nc(-c2nc(N)cc(N)n2)co1)c1cc(-c2ccc(S(=O)(=O)N3CCN(C)CC3)cc2)ccc1C [OR0640] | – | 18.2 ± 0.9 | 3670 | 18.22 º | –
21 | CCCN(c1nc(-c2nc(N)cc(N)n2)cs1)c1cc(-c2ccc(S(=O)(=O)C3CCNCC3)cc2)ccc1C [OR0646] | – | 22.4 ± 1.1 | 171 | 22.39 º | –
22 | CCCN(c1nc(-c2nc(N)cc(N)n2)cs1)c1cc(-c2ccc(S(=O)(=O)NCCN)cc2)ccc1C [OR0651] | 1520 ± 178 | 20.8 ± 1.2 | 1530 | 20.83 º | –

Continued by falling IC50 (CCRF-CEM cell line; [2]), values first:

Row | IC50 (CCRF-CEM cell line; [1]) [nM] | THERMAL SHIFT ASSAY +Tm (°) (dCK-C3S-S74E) | IC50 (CCRF-CEM cell line; [2]) [nM] | ΔTm (º) (TSA) (dCK-C3S-S74E) | IC50 (CCRF-CEM cell line; Figure 2a, CCRF-CEM cell line, mean, read-out: IC50 (nM) (Cell Prolif)) | Compound
23 | – | 19.2 ± 0.8 | 135 | 19.23 º | – | CCCN(c1nc(-c2nc(N)cc(N)n2)cs1)c1cc(-c2ccc(NC(=O)N3CCN(C)CC3)nc2)ccc1C [OR0616]
24 | – | 22.3 ± 1.1 | 134 | 22.28 º | – | CCCN(c1nc(-c2nc(N)cc(N)n2)cs1)c1cc(-c2ccc(S(=O)(=O)N3CCC(N)CC3)cc2)ccc1C [OR0648]
25 | – | 18.6 ± 1.5 | 120 | 18.61 º | – | CCCN(c1nc(-c2nc(N)cc(N)n2)cs1)c1cc(-c2ccc(S(=O)(=O)N3CCN(C)CC3)c(OC(F)(F)F)c2)ccc1C [OR0650]
26 | – | 20.7 ± 0.9 | 119 | 20.72 º | – | CCCN(c1nc(-c2nc(N)cc(N)n2)cs1)c1cc(-c2ccc(S(=O)(=O)N3CCNCC3)cc2)ccc1C [OR0639]
27 | 84 ± 49 | 20.5 ± 0.9 | 88.3 | 20.49 º | – | Cc1ccc(-c2ccc(S(=O)(=O)N3CCN(C)CC3)cc2)cc1N(CC(C)C)c1nc(-c2nc(N)cc(N)n2)cs1 [OR0637]
28 | 67 ± 22 | 19.7 ± 0.9 | 67.4 | 19.72 º | – | CCCN(c1nc(-c2nc(N)cc(N)n2)cs1)c1cc(-c2ccc(S(=O)(=O)N3CCN(C)CC3)cc2OC)ccc1C [OR0645]
29 | 46 ± 18 | 20.2 ± 0.9 | 45.7 | 20.22 º | – | CCCN(c1nc(-c2nc(N)cc(N)n2)cs1)c1cc(-c2ccc(S(=O)(=O)N3CCN(C)CC3)cc2F)ccc1C [OR0643]
30 | – | 20.2 ± 0.9 | 35 | 20.22 º | – | CCCN(c1nc(-c2nc(N)cc(N)n2)cs1)c1cc(-c2ccc(S(=O)(=O)N3CCN(CC)CC3)cc2)ccc1C [OR0638]
31 | – | 20.5 ± 1.2 | 12.1 | 20.5 º | – | CCCN(c1nc(-c2nc(N)cc(N)n2)cs1)c1cc(-c2c(F)cc(S(=O)(=O)N3CCN(C)CC3)cc2OC)ccc1C [OR0644]
32 | 10.9 ± 4.1 | 21.1 ± 1.6 | 11 | 21.06 º | – | CCCN(c1nc(-c2nc(N)cc(N)n2)cs1)c1cc(-c2c(F)cc(S(=O)(=O)N3CCN(C)CC3)cc2F)ccc1C [OR0647]
33 | 10.5 ± 5 | 21.1 ± 1.1 | 10 | 21.11 º | – | CCCN(c1nc(-c2nc(N)cc(N)n2)cs1)c1cc(-c2ccc(S(=O)(=O)N3CCN(C)CC3)cc2Cl)ccc1C [OR0641]
